Measured values taken from US20260176249A1, “PROTEIN KINASE INHIBITOR, PREPARATION METHOD THEREFOR, AND APPLICATION THEREOF” (SHANDONG LUYE PHARMACEUTICAL CO., LTD., priority 2021, published 2026).

Key:
[1] = Metabolic stability in mouse liver microsomes; type: in vitro ADME; conditions: for CLint scaled at 1 µM / half-life at 1 µM / microsomal CLint at 1 µM: mouse; for CLint scaled at 1 µM / half-life at 1 µM: pH 7.4; for microsomal CLint at 1 µM: pH 7.4, read-out: CLint(mic)
Procedure, shortened: (§1)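 Compounds incubated at 37 °C with mouse, rat or human liver microsomes in 100 mM phosphate buffer pH 7.4, started with NADPH/MgCl2 and sampled at 0–60 min. Parent remaining quantified by LC-MS. T1/2 and CLint(mic) derived from depletion, scaled to CLint using 45 mg protein/g liver and species liver/body weight ratios.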

[2] = Metabolic stability in rat liver microsomes; type: in vitro ADME; conditions: for CLint scaled at 1 µM / half-life at 1 µM / microsomal CLint at 1 µM: rat; for CLint scaled at 1 µM / half-life at 1 µM: pH 7.4; for microsomal CLint at 1 µM: pH 7.4, read-out: CLint(mic)
Procedure, shortened: as §1

[3] = Metabolic stability in human liver microsomes; type: in vitro ADME; conditions: for CLint scaled at 1 µM / half-life at 1 µM / microsomal CLint at 1 µM: human; for CLint scaled at 1 µM / half-life at 1 µM: pH 7.4; for microsomal CLint at 1 µM: pH 7.4, read-out: CLint(mic)
Procedure, shortened: as §1

HCT116 cells [4] = assay: In vivo pharmacodynamic study of compound 1 in HCT116 tumor-bearing mice; set-up: species or system Balb/C Nude mice; conditions: 20 mg/kg once a day by gavage, vs sham group
Excerpt: Balb/C Nude mice, SPF grade, male, weighing 18-20 g, were purchased from Jiangsu Gempharmatech Co., Ltd.
HCT116 cells were purchased from ATCC.
Matrigel Matrix, Cat. No. 354248, was purchased from Becton, Dickinson and Company.
Kolliphor® HS 15, Cat. No. 42966, was purchased from Sigma-Aldrich.
(§2) a. Establishment of tumor-bearing mouse model: HCT116 cells in the logarithmic growth phase were taken and cultured, the cells were collected and counted, and then subcutaneously inoculated into Balb/C Nude mice at 1×10^6/mouse. The tumor volume and body weight of the mice were measured regularly. 7 days after inoculation, mice with tumor volume of 150 mm3 were randomly divided into groups and treated with corresponding drugs.
b. […] The administration was performed once a day by gavage for 21 consecutive days, and the tumor volume and body weight of the mice were measured regularly.
(§3) 3. Data processing: All data were organized in EXCEL, and One-way ANOVA analysis and drawing were performed using GraphPad Prism 8.0 software. Statistical significance was achieved when p<0.05.

HCT116 cells [5] = assay: In vivo pharmacodynamic study of compound 18 in HCT116 tumor-bearing mice; set-up: species or system Balb/C Nude mice; conditions: 60 mg/kg once a day by gavage
Description: as §2, §3
1. Experiment materials: Same as Test example 5.
a. Establishment of tumor-bearing mouse model: Same as Test example 5.
b. […] The administration was performed once a day by gavage for 7 consecutive days, and the tumor volume and body weight of the mice were measured regularly.
3. Data processing: Same as Test example 5.

| SMILES | 60 min remaining amount [1] [%] | Clearance rate [1] | CLint scaled at 1 µM [1] [mL/min/kg] | half-life at 1 µM [1] [min] | microsomal CLint at 1 µM [1] [µL/min/mg] | 60 min remaining amount [2] [%] | Clearance rate [2] | CLint scaled at 1 µM [2] [mL/min/kg] | half-life at 1 µM [2] [min] | microsomal CLint at 1 µM [2] [µL/min/mg] | 60 min remaining amount [3] [%] | Clearance rate [3] | CLint scaled at 1 µM [3] [mL/min/kg] | half-life at 1 µM [3] [min] | microsomal CLint at 1 µM [3] [µL/min/mg] | also measured |
| --- | --- | --- | --- | --- | --- | --- | --- | --- | --- | --- | --- | --- | --- | --- | --- | --- |
| CN1CCN(c2ccc(OC(F)(F)F)c(Nc3ncc4c(n3)-c3c(c(C(=O)NN)nn3CCO)CC4)c2)CC1 [Compound 13] | 38.6 | Medium | 123 | 44.7 | 31 | 27.8 | Medium | 74.5 | 33.5 | 41.4 | 58.5 | Medium | 17.5 | 71.4 | 19.4 | – |
| CN1CCN(c2ccc(OC(F)(F)F)c(Nc3ncc4c(n3)-c3c(c(C(N)=O)cn3CCO)CC4)c2)CC1 [Compound 2] | 26.7 | Medium | 175 | 31.4 | 44.2 | 17.0 | Medium | 103 | 24.3 | 57 | 49.9 | Medium | 22.7 | 55 | 25.2 | – |
| Cn1nc(C(N)=O)c2c1-c1nc(Nc3cc(N4CCN(CCO)CC4)ccc3OC(F)(F)F)ncc1CC2 [Compound 20] | 15.9 | High | 238 | 23.1 | 60 | 21.6 | Medium | 95.4 | 26.2 | 53 | 26.5 | Medium | 39.1 | 31.9 | 43.4 | – |
| CN1CCN(c2ccc(OC(F)(F)F)c(Nc3ncc4c(n3)-c3c(c(C(N)=O)nn3CCC#N)CC4)c2)CC1 [Compound 4] | 1.33 | High | 1230 | 4.47 | 310 | 2.76 | High | 211 | 11.8 | 117 | 23.7 | Medium | 44.1 | 28.3 | 49 | – |

Now from value to compound, other results behind:

| 60 min remaining amount [1] [%] | Clearance rate [1] | CLint scaled at 1 µM [1] [mL/min/kg] | half-life at 1 µM [1] [min] | microsomal CLint at 1 µM [1] [µL/min/mg] | 60 min remaining amount [2] [%] | Clearance rate [2] | CLint scaled at 1 µM [2] [mL/min/kg] | half-life at 1 µM [2] [min] | microsomal CLint at 1 µM [2] [µL/min/mg] | 60 min remaining amount [3] [%] | Clearance rate [3] | CLint scaled at 1 µM [3] [mL/min/kg] | half-life at 1 µM [3] [min] | microsomal CLint at 1 µM [3] [µL/min/mg] | SMILES | also measured |
| --- | --- | --- | --- | --- | --- | --- | --- | --- | --- | --- | --- | --- | --- | --- | --- | --- |
| 58.2 | Medium | 74.4 | 73.7 | 18.8 | 47.9 | Medium | 46.4 | 53.7 | 25.8 | 40.1 | Medium | 28.6 | 43.6 | 31.8 | CN1CCN(c2ccc(OCC(F)(F)F)c(Nc3ncc4c(n3)-c3c(c(C(N)=O)nn3CCO)CC4)c2)CC1 [Compound 24] | – |
| 21.5 | Medium | 202 | 27.2 | 51 | 15.7 | Medium | 110 | 22.7 | 61 | 64.8 | Medium | 15.3 | 81.5 | 17 | CN1CCN(c2ccc(OC(F)(F)F)c(Nc3ncc4c(n3)-c3c(c(C(N)=O)nn3CCO)CC4)c2)CC1 [Onvansertib, reference compound] | tumor inhibition rate (HCT116 cells [4]; 11 days): 54.9%; tumor inhibition rate (HCT116 cells [4]; 16 days): 39.6%; tumor inhibition rate (HCT116 cells [4]; 21 days): 37.0%; body weight decrease compared to before administration (HCT116 cells [5]; 5 days): 8.4%; body weight decrease compared to before administration (HCT116 cells [5]; 7 days): 19.5%; tumor inhibition rate (HCT116 cells [5]; 7 days, vs control group): 62.7% |
| 24.6 | Medium | 184 | 29.9 | 46.4 | 21.6 | Medium | 90 | 27.7 | 50.5 | 23.3 | Medium | 44.1 | 28.3 | 49 | Cn1nc(C(N)=O)c2ccc3cnc(Nc4cc(N5CCN(CCO)CC5)ccc4OC(F)(F)F)nc3c21 [Compound 16] | – |
